The test concerns the target T1, p62 (Homo sapiens, UniProt Q13501).
T1 construct: PCR amplification of a full-length human p62 cDNA fragment; expressed in transfected cells; unpurified lysate supernatant
Briefly: In vitro p62 oligomerization assay. Type of test: biochemical. The note with it: 2 h; for p62 oligomerization: dipeptide 50 mM, FIG. 2B; for oligomerization and aggregation of p62: p62-ZZ ligands 1 mM, p62-myc/his cell lysate, FIG. 5B. The procedure:
FIG. 2B illustrates the in vitro p62 oligomerization assay results in HEK293T cells cultured with Arg-Ala or Ala-Arg dipeptide (50 mM, 2 hours),
FIG. 5B illustrates the in vitro p62 oligomerization assay results in HEK293T cells incubated with the p62-ZZ ligands (1 mM, 2 h) illustrated in FIG. 5A,
HEK293 cells were transiently transfected with a plasmid encoding p62-myc/his fusion proteins (Reference Example 2), resuspended in a lysis buffer [50 mM Hepes (pH 7.4), 0.15 M KCl, 0.1% Nonidet P-40), 10% glycerol, and a mixture of protease inhibitors and phosphatase inhibitor (Abcam)] and lysed by 10 cycles of freezing and thawing, followed by centrifugation at 13,000×g for 20 min at 4° C. The protein concentration in the supernatant was determined using a BCA assay (Thermo Fisher Scientific). A total of 1 μg of protein was mixed with 50 mM of the Arg-Ala or Ala-Arg dipeptide (Anygen) or 1000 μM of p62-ZZ ligands in the presence of 100 μM bestatin (Enzo) at room temperature for 2 h. Next, a non-reducing 4×LDS sample buffer was added to each sample, heated at 95° C. for 10 min, and resolved using 4-20% gradient SDS-PAGE (Bio-Rad). Immunoblotting analysis was carried out to monitor the conversion of p62 monomers into oligomers or aggregates using an anti-myc antibody.

In the case of Ala-Arg, the p62 oligomerization entry is listed as “did not induce p62 oligomerization”.

Consider Arg-Ala, for which the p62 oligomerization result is on record as “induced p62 oligomerization”.

Regarding `O=Cc1ccc(OCc2ccccc2)c(OCc2ccccc2)c1` [compound 1101, 3,4-bis(benzyloxy)benzaldehyde], the “oligomerization and aggregation of p62” value is reported as “negative controls”.

For the compound `COC(=O)CNC[C@@H](O)COc1ccc(OCc2ccccc2)c(OCc2ccccc2)c1` [YOK-G-1104, methyl (R)-(3-(3,4-bis(benzyloxy)phenoxy)-2-hydroxypropyl)glycinate], the “oligomerization and aggregation of p62” value is “negative controls”.
